Source: the NIST ThermoML archive (doi:10.1021/je900347f)
Numbers after ± are expanded uncertainties.

Experiment: excess molar enthalpy (molar enthalpy of mixing); xn = mol fraction of the nth substance listed
Conditions: 308.15 K, 101 kPa, Liquid, Flow calorimetry

C1CCNCC1 [piperidine] + C1CCOCC1
Conditions | excess molar enthalpy [kcal/mol]
x2 = 0.102 | 0.0249 ± 0.00239
x2 = 0.196 | 0.0435 ± 0.00239
x2 = 0.301 | 0.0581 ± 0.00239
x2 = 0.397 | 0.0667 ± 0.00239
x2 = 0.497 | 0.0698 ± 0.00239
x2 = 0.598 | 0.0679 ± 0.00239
x2 = 0.7 | 0.06 ± 0.00239
x2 = 0.801 | 0.0464 ± 0.00239
x2 = 0.893 | 0.0277 ± 0.00239

C1CCOCC1 [tetrahydropyran] + C1CCCCC1
Conditions | excess molar enthalpy [kcal/mol]
x2 = 0.101 | 0.0375 ± 0.00263
x2 = 0.2 | 0.0703 ± 0.00263
x2 = 0.3 | 0.0985 ± 0.00263
x2 = 0.4 | 0.117 ± 0.00263
x2 = 0.499 | 0.126 ± 0.00263
x2 = 0.606 | 0.124 ± 0.00263
x2 = 0.699 | 0.11 ± 0.00263
x2 = 0.8 | 0.0848 ± 0.00263
x2 = 0.9 | 0.0473 ± 0.00263

C1CCNCC1 [piperidine] + C1CCCCC1
Conditions | excess molar enthalpy [kcal/mol]
x2 = 0.101 | 0.0617 ± 0.00263
x2 = 0.201 | 0.114 ± 0.00287
x2 = 0.3 | 0.155 ± 0.00287
x2 = 0.4 | 0.186 ± 0.00287
x2 = 0.499 | 0.202 ± 0.00287
x2 = 0.601 | 0.202 ± 0.00287
x2 = 0.679 | 0.19 ± 0.00287
x2 = 0.801 | 0.152 ± 0.00287
x2 = 0.901 | 0.0935 ± 0.00287
